Data on one compound can be found in PMC3899824 (Investigational new drugs, 2013).

Structures are written as SMILES. Like-named read-outs stand apart in the source and are kept apart here.

Usually IC50 stands for the concentration needed to halve the response being measured.

The test system of series [1] is 8226/S multiple myeloma cells. Put plainly: Apoptosis by AnnexinV/PI flow cytometry, 8226/S. The note with it: 200 nM PC-046 24h, without active caspase inhibitor. The series is classed as cell-based, human.
The subject of series [2] is 8226/Dox40 myeloma cells (MDR-1 overexpressing). As to conditions: read-out: IC50, nM (Mean ± SEM); 8226/Dox40, 72h, MTT.
The next series concerns MCF-7 breast cells. The note with it: read-out: IC50, nM (Mean ± SEM); MCF-7, 72h, MTT.
Another series concerns PC-3 prostate cells. As to conditions: read-out: IC50, nM (Mean ± SEM); PC-3, 72h, MTT.
Series [3] concerns H929 multiple myeloma cells. As to conditions: H929, 24h, 25-100 nM.
Series [4] concerns MM.1S multiple myeloma cells. The note with it: 24h, 25-100 nM.
The subject of series [5] is 8226/S multiple myeloma cells. The note with it: 24h, 25-100 nM.
Experiment in series [6]: not given
The source holds these as a separate data set.

For series [7], the system named is human MiaPaCa-2 pancreatic cancer cell line xenograft. As to conditions: SCID mice bearing MiaPaCa-2 flank tumors; cited from earlier work.
In a further series the target is PDGF-beta. As to conditions: at pharmacologically-achievable concentrations; cited from earlier work.
The test system of series [8] is caspases 3, 8 and 9 in MM.1S cells. Put plainly: Western blot of caspases 3, 8 and 9. The note with it: 24h, 0 – 500 nM. For orientation: Immunoblotting shows a protein as a band on a membrane.

On to `COc1ccc(-c2cnc(-c3ccncc3-c3cccc(OC)c3)o2)cc1` [PC-046, 5-(4-methoxyphenyl)pyridine-4-yl], for which, in series [1], the AnnexinV-positive cells came out at 30.7%. Further, the IC50 worked out at 188 ± 6.1 nM in series [2], 166 ± 26.3 nM in the series on MCF-7 breast cells and 105 ± 30.2 nM with PC-3 prostate cells. The “cell cycle effect (DNA content)” value is “accumulation of cells in the G2/M-phase” in series [3], “accumulation of cells in the G2/M-phase” in series [4] and “significant accumulation of cells in S-phase” in series [5]. Also, the lethal acute dose (mouse, in vivo) was 150 mg/kg. In addition, the “time to death after administration” value (mouse, in vivo, 150 mg/kg) fell in the range of 2 to 5 days. Where the note is “single dose, non-tumor bearing mice”, this compound displayed an acutely tolerated dose of 100 mg/kg. Also, the “mean PC-046 concentrations in the femurs (bone marrow flushings)” value in series [6] (30 and 60 minutes after 100 mg/kg IP) is “approximately 0.07 μg/mL”. In series [6] (30 and 60 minutes after 100 mg/kg IP, converted), this compound showed a femur concentrations of 195 nM. In addition, the mean plasma concentration turned out to be 1750 ng/mL in series [6] (30 minutes after 100 mg/kg IP), 1930 ng/mL in series [6] (45 minutes after 100 mg/kg IP) and 962 ng/mL in series [6] (60 minutes after 100 mg/kg IP). In series [7], the “activity against flank tumor xenografts” value is “active”. In addition, the “kinase inhibition in vitro” value on PDGF-beta is “inhibit”. Moreover, the “caspase activation by western blot” value in [8] is “cleavage of three major caspases, 3, 8, and 9”.
